Measured values as given in paper PMC9381947 (Antiviral Research, 2022).

What was measured:
[1] = test system: NSP13 E319A; format: biochemical, SARS-CoV-2
[2] = test system: NSP13 E375A; format: biochemical, SARS-CoV-2

## O=C1O[C@@H]2[C@@H](OC(=O)c3cc(O)c(O)c(O)c3-c3c1cc(O)c(O)c3O)[C@H](O)O[C@@H]1COC(=O)c3cc(O)c(O)c(O)c3-c3c(O)c(O)c4oc(=O)c5c(c(O)c(O)c6oc(=O)c3c4c65)-c3c(cc(O)c(O)c3O)C(=O)O[C@@H]21 [Punicalagin, 2,3-hexahydroxydiphenoyl-gallagyl-D-glucose]
[1]
  reduction of the inhibitory potency compared to wild type: about 2 fold
[2]
  reduction of the inhibitory potency compared to wild type: about 2 fold
